Series [1] has as its system HCV replicon (genotype 1b) in Huh7 cell line ET. Briefly: microbe, parasite or virus in culture. It is filed as cell-based, HCV genotype 1b.
Series [2] concerns Huh-7 ET, Molt-4, DU-145, Hep-G2 and SH-SY5Y cells. In words: [3H]Thymidine incorporation assay (cell toxicity). The settings on record: read-out: [3H]Thymidine CC50; [3H]thymidine incorporation, cell toxicity; mean value class; cell line not given.
In series [3] the test system is HCV sub-genomic replicon of genotype 1a in replicon cell line W11.8. Briefly: microbe, parasite or virus in culture. It is filed as cell-based, HCV genotype 1a. The settings on record: Hepatitis C virus, W11.8, 96 h, read-out: HCV-Replicon-ELISA-1a IC50. An excerpt:
This procedure below describes the HCV replicon assay using a Huh7 hepatoma cell line harboring a highly cell culture-adapted replicon (genotype 1b) (hereafter named cell line ET). The ET cells contained the highly cell culture-adapted replicon I389luc-ubi-neo/NS3-3′/5.1 construct that carried, in addition to the neomycin gene, an integrated copy to the firefly luciferase gene (Krieger, N; Lohmann, V; Bartenschlager, R. Enhancement of hepatitis C virus RNA replication by cell culture-adaptive mutations. J. Virol. 2001, 75, 4614-4624). A replicon cell line W11.8, containing the 1a genotype of HCV was also used. These two cell lines (genotype 1b and 1a) allowed measurement of RNA replication and translation by measuring luciferase activity (against genotype 1b) or by measuring the NS5A level using the ELISA assay (against genotype 1a). […] ET cell lines were maintained in cultures at a sub-confluent level (<85%). The culture media used for cell passaging consisted of DMEM (Gibco BRL Laboratories, Mississauga, ON, Canada) supplemented with 10% fetal bovine serum with 1% penicilin/streptomycin, 1% glutamine, 1% sodium pyruvate, 1% non-essential amino acids, and 180 µg/ml of G418 final concentration.
Replicon cell lines W11.8 containing a sub-genomic replicon of genotype 1a was used for the HCV Replicon Cell-Based detection using the ELISA. The RNA replication in presence of different drug concentrations was indirectly measured in these cell lines by the level of NS5A protein content upon drug treatment for four days. The NS5A is a non-structural protein of HCV and is used as marker of HCV replication in this assay.
For the treatment of the cells with the testing drug, Culture medium was removed from the 175 cm^2 T-flask by aspiration. Cell monolayer was rinsed with 10-20 mL of PBS 1× at room temperature. PBS was removed by aspiration. Cells were trypsinized using 3 mL of Trypsin (0.25%)/EDTA (0.1%) solution. Flasks were incubated at 37° C. (incubator) for 7 minutes. Complete medium (9 mL) without G418 is then added. Cell clumps were disrupted by pipetting up and down several times.
The cell suspension was then transferred to a 50 mL Falcon polypropylene tube. Cells were then counted several times using the haemocytometer. Cells were diluted at 50,000 cells/mL with complete DMEM without G418, then transferred into a sterile reservoir. Using a multichannel pipet, approximately 5,000 viable cells (100 μL) were plated per well in a white opaque 96-well microtiter plate. After an incubation period of 2-4 hours at 37° C. in a 5% CO2 incubator, compounds were added at various concentrations.
Drugs were resuspended in DMSO at a stock concentration of 100 mM or 10 mM. […] Then, drugs were diluted at twice the final concentration in the same medium (without G418) described earlier, in sterile 96-deep well plate and according to a particular template (see Appendix). One volume (100 μL) of each drug dilution was then added to each well that contains cells.
Sixteen wells were used as control (0% inhibition) without drug. Eight wells were used as background control (100% inhibition) containing 2 μM (final concentration) of the reference compound. […] Values from 100% inhibited wells were averaged and used as the background value. Cells are further incubated for 4 days at 37° C. in a 5% CO2 incubator.
For the measurement of NS5A protein content, following the incubation time of four days, the media was throwed into an appropriate waste container by inverting the plate. Any residual liquid was removed by tapping gently on absorbent paper several times. The plates were then washed once with 150 μL of PBS per well, and then incubated for 5 minutes at room temperature on a shaker (500 rpm).
On the technique in general: Replicon systems follow genome replication, usually without infectious particles.

Series [4] in a line: [3H]Thymidine incorporation assay (cell toxicity). The settings on record: human. For orientation: Incorporation of labelled thymidine or its analogues reports DNA synthesis.
Setting [5] is: read-out: HCV-Replicon-(Luci-ET) 1b_IC50.
[6] abbreviates: Hepatitis C virus, Huh-7, 96 h, read-out: HCV-Replicon (Luci-ET)-1b_IC50.

Like-named read-outs stand apart in the source and are kept apart here.

In general, CC50 refers to the concentration that lowers cell viability or growth by half. Take `CO[C@H](C)[C@@H](C(=O)N(C)C)N(c1cc(C#CC(C)(C)C)sc1C(=O)O)C(=O)[C@H]1CC[C@H](C)CC1` [Compound 57]: in series [1] (setting [5]), the IC50 is below 100 nM. In series [2], the CC50 is above 100000 nM.
As for `COC(C)C(C(=O)N1CCOCC1)N(C(=O)C1CCC(C)CC1)c1cc(C#CC(C)(C)C)sc1C(=O)O` (stereo not drawn) [Compound 65], the IC50 in series [1] (setting [5]) was below 100 nM. The CC50 in series [2] is above 100000 nM.
In the case of `CC(C)C#Cc1cc(N(CC(=O)N2CC3(COC3)C2)C(=O)C2CCC(C)CC2)c(C(=O)O)s1` (stereo not drawn) [Compound 71], the IC50 in series [1] (setting [5]) was below 100 nM. Besides, the CC50 in series [2] is above 100000 nM.
On to `CC(C)(C)C#Cc1cc(N(CC(=O)N2CCOCC2)C(=O)c2ccc(Cl)cc2Cl)c(C(=O)O)s1` [Compound 124, 3-[(2,4-dichlorobenzoyl)-(2-morpholino-2-oxo-ethyl)amino]-5-(3,3-dimethylbut-1-ynyl)thiophene-2-carboxylic acid], for which the IC50 in series [3] and in series [1] (setting [6]) was below 100 nM each time. Further, the CC50 at 72 h in series [4] was above 100000 nM.
Turning to `CC(C)CC#Cc1cc(N(CC(=O)N2CCOCC2)C(=O)[C@H]2CC[C@H](C)CC2)c(C(=O)O)s1` [Compound 130, 3-[(trans-4-methylcyclohexanecarbonyl)-(2-morpholino-2-oxo-ethyl)amino]-5-(4-methylpent-1-ynyl)thiophene-2-carboxylic acid], the IC50 in series [3] and in series [1] (setting [6]) was 100 to 1000 nM each time. In addition, the cytotoxic concentration (CC50) at 72 h in series [4] is above 100000 nM.
For `CCN1CC[C@H](N(c2cc(C#CC(C)(C)C)sc2C(=O)O)C(=O)[C@H]2CC[C@H](C)CC2)C1=O` [Compound 131, 5-(3,3-dimethylbut-1-ynyl)-3-[[(3S)-1-ethyl-2-oxo-pyrrolidin-3-yl]-(trans-4-methylcyclohexanecarbonyl)amino]thiophene-2-carboxylic acid], the IC50 in series [3] and in series [1] (setting [6]) was below 100 nM in each case. The molecule further gave a CC50 at 72 h in series [4] above 100000 nM.
Regarding `COCCN1CC[C@H](N(c2cc(C#CC(C)(C)C)sc2C(=O)O)C(=O)[C@H]2CC[C@H](C)CC2)C1=O` [Compound 133, 5-(3,3-Dimethylbut-1-ynyl)-3-[[(3S)-1-(2-methoxyethyl)-2-oxo-pyrrolidin-3-yl]-(trans-4-methylcyclohexanecarbonyl)amino]thiophene-2-carboxylic acid], the IC50 in series [3] and in series [1] (setting [6]) was below 100 nM each time. The same molecule had a CC50 at 72 h in series [4] above 100000 nM.
`CCN1CCCC[C@H](N(c2cc(C#CC(C)(C)C)sc2C(=O)O)C(=O)[C@H]2CC[C@H](C)CC2)C1=O` [Compound 134, (S)-5-(3,3-Dimethylbut-1-ynyl)-3-((trans)-4-methyl-N-(1-ethyl-2-oxoazepan-3-yl)cyclohexanecarboxamido)thiophene-2-carboxylic acid]: the IC50 in series [3] and in series [1] (setting [6]) was below 100 nM in each case. In series [4], this molecule showed a CC50 at 72 h of 10000 to 100000 nM.
On to `CN1CCOC[C@H](N(c2cc(C#CC(C)(C)C)sc2C(=O)O)C(=O)[C@H]2CC[C@H](C)CC2)C1=O` [Compound 136, (S)-5-(3,3-Dimethylbut-1-ynyl)-3-[(trans)-4-methyl-N-(4-methyl-5-oxo-1,4-oxazepan-6-yl)cyclohexanecarboxamido]thiophene-2-carboxylic acid], for which the IC50 in series [3] and in series [1] (setting [6]) was below 100 nM each time. In series [4], this molecule displayed a CC50 at 72 h above 100000 nM.
Consider `CN1CCCC[C@H](N(C(=O)c2ccc(Cl)cc2Cl)c2cc(C#CC(C)(C)C)sc2C(=O)O)C1=O` [Compound 137, (S)-5-(3,3-Dimethylbut-1-ynyl)-3-[(2,4-dichlorobenzoyl)-N-(1-methyl-2-oxoazepan-3-yl)amino]-thiophene-2-carboxylic acid], for which the IC50 in series [3] and in series [1] (setting [6]) was below 100 nM throughout. Moreover, in series [4], the CC50 at 72 h is above 100000 nM.
Consider `COCCN1CCCC[C@H](N(c2cc(C#CC(C)(C)C)sc2C(=O)O)C(=O)[C@H]2CC[C@H](C)CC2)C1=O` [Compound 138, (S)-5-(3,3-Dimethylbut-1-ynyl)-3-((trans)-4-methyl-N-(1-(2-methoxyethyl)-2-oxoazepan-3-yl)cyclohexanecarboxamido)thiophene-2-carboxylic acid], for which the IC50 in series [3] and in series [1] (setting [6]) was below 100 nM throughout. Further, the CC50 at 72 h in series [4] was above 100000 nM.
Consider `CC(C)(C)C#Cc1cc(N(C(=O)[C@H]2CC[C@H](C)CC2)[C@H]2CCN(CCO)C2=O)c(C(=O)O)s1` [Compound 139, 5-(3,3-Dimethylbut-1-ynyl)-3-[[(3S)-1-(2-hydroxyethyl)-2-oxo-pyrrolidin-3-yl]-(trans-4-methylcyclohexanecarbonyl)amino]thiophene-2-carboxylic acid], for which the IC50 in series [3] and in series [1] (setting [6]) was below 100 nM throughout. Besides, the CC50 at 72 h in series [4] was above 100000 nM.
`CN1CCC[C@H](N(C(=O)c2ccc(Cl)cc2Cl)c2cc(C#CC(C)(C)C)sc2C(=O)O)C1=O` [Compound 140, (S)-5-(3,3-Dimethylbut-1-ynyl)-3-[(2,4-dichlorobenzoyl)-N-(1-methyl-2-oxopiperidin-3-yl)amino]-thiophene-2-carboxylic acid]: the IC50 in series [3] and in series [1] (setting [6]) was below 100 nM throughout. Also, in series [4], the CC50 at 72 h was above 100000 nM.
On to `CC(C)N1CC[C@H](N(c2cc(C#CC(C)(C)C)sc2C(=O)O)C(=O)[C@H]2CC[C@H](C)CC2)C1=O` [Compound 142, 5-(3,3-dimethylbut-1-ynyl)-3-[[(3S)-1-isopropyl-2-oxo-pyrrolidin-3-yl]-(trans-4-methylcyclohexanecarbonyl)amino]thiophene-2-carboxylic acid], for which the IC50 in series [3] and in series [1] (setting [6]) was below 100 nM each time. Further, in series [4], the CC50 at 72 h lay in the range of 10000 to 100000 nM.
As for `CC[C@@H](C(=O)N1CCOCC1)N(C(=O)c1ccc(Cl)cc1Cl)c1cc(C#CC(C)(C)C)sc1C(=O)O` [Compound 143, (S)-5-(3,3-Dimethylbut-1-ynyl)-3-[(2,4-dichlorobenzoyl)-[1-(morpholine-4-carbonyl)propyl]amino]-thiophene-2-carboxylic acid], the IC50 in series [3] and in series [1] (setting [6]) was below 100 nM in each case. Besides, the CC50 at 72 h in series [4] is 10000 to 100000 nM.
As for `CC(C)N1CCCC[C@H](N(c2cc(C#CC(C)(C)C)sc2C(=O)O)C(=O)[C@H]2CC[C@H](C)CC2)C1=O` [Compound 146, (S)-5-(3,3-Dimethylbut-1-ynyl)-3-((trans)-4-methyl-N-(1-isopropyl-2-oxoazepan-3-yl)cyclohexanecarboxamido)thiophene-2-carboxylic acid], the IC50 in series [3] and in series [1] (setting [6]) was below 100 nM each time. In series [4], this molecule registered a CC50 at 72 h of 10000 to 100000 nM.
Turning to `CCN1CCC[C@H](N(c2cc(C#CC(C)(C)C)sc2C(=O)O)C(=O)[C@H]2CC[C@H](C)CC2)C1=O` [Compound 148, (S)-5-(3,3-Dimethylbut-1-ynyl)-3-((trans)-4-methyl-N-(1-ethyl-2-oxopiperidin-3-yl)cyclohexanecarboxamido)thiophene-2-carboxylic acid], the IC50 in series [3] and in series [1] (setting [6]) was below 100 nM throughout. Moreover, the CC50 at 72 h in series [4] was above 100000 nM.
Regarding `CC(C)N1CCC[C@H](N(c2cc(C#CC(C)(C)C)sc2C(=O)O)C(=O)[C@H]2CC[C@H](C)CC2)C1=O` [Compound 149, (S)-5-(3,3-Dimethylbut-1-ynyl)-3-((trans)-4-methyl-N-(1-isopropyl-2-oxopiperidin-3-yl)cyclohexanecarboxamido)thiophene-2-carboxylic acid], the IC50 in series [3] and in series [1] (setting [6]) was below 100 nM each time. In series [4], the CC50 at 72 h lay within 10000 to 100000 nM.

These data come from patent publication US20130190289A1, “COMPOUNDS AND METHODS FOR THE TREATMENT OR PREVENTION OF FLAVIVIRUS INFECTIONS” (priority 2010, published 2013).
